Target: T1, MAPKAPK5 (Homo sapiens, UniProt Q8IW41)
T1 sequence (Q8IW41 1-471 isoform Q8IW41-2): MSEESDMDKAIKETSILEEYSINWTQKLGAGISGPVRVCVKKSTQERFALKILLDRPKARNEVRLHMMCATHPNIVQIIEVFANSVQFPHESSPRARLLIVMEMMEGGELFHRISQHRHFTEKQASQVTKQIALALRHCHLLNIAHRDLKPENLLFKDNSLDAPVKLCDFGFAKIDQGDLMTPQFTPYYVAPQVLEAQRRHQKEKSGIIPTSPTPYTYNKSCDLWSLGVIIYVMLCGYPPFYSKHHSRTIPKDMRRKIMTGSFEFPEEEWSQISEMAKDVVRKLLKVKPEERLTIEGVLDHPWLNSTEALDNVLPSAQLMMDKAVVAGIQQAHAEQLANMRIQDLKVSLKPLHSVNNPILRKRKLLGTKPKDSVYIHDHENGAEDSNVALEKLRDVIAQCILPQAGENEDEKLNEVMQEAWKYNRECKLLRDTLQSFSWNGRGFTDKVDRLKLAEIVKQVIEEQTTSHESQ
Experiment: MAPKAP-K5 FlashPlate kinase assay (33P-ATP)
Type: biochemical
Conditions: 0.6 μM ATP, 30 minutes at room temperature
Method: 3 μM MAPKAP-K5 peptide substrate

| IC50 [nM] | Structure (SMILES) |
| --- | --- |
| 101 to 500 | NC(=O)c1cc(-c2cnc(NC3CCC3)c3nccn23)co1 [Example 6, 4-(8-(CYCLOBUTYLAMINO)IMIDAZO[1,2-A]PYRAZIN-5-YL)FURAN-2-CARBOXAMIDE] |
| > 1000 | NC(=O)c1cc(-c2cnc(NC3CCN(Cc4ccccc4)CC3)c3ncnn23)co1 [Example 18, 4-[8-(1-BENZYL-PIPERIDIN-4-YLAMINO)-[1,2,4]TRIAZOLO[1,5-A]PYRAZIN-5-YL]-FURAN-2-CARBOXYLIC ACID AMIDE] |
| > 1000 | NC(=O)c1cc(-c2cnc(NC3CCN(Cc4ccccc4)C3)c3nccn23)co1 (single isomer, unassigned) [Example 17, 4-[8-(1-BENZYL-PYRROLIDIN-3-YLAMINO)-IMIDAZO[1,2-A]PYRAZIN-5-YL]-FURAN-2-CARBOXYLIC ACID AMIDE] |
| 501 to 1000 | CC(C)(C)OC(=O)N1CCC(Nc2ncc(-c3ccc4c(c3)CNC4=O)n3ncnc23)CC1 [Example 12, TERT-BUTYL 4-(5-(1-OXOISOINDOLIN-5-YL)-[1,2,4]TRIAZOLO[1,5-A]PYRAZIN-8-YLAMINO)PIPERIDINE-1-CARBOXYLATE] |
| 501 to 1000 | CC(C)(C)OC(=O)NC1CCC(Nc2ncc(-c3ccc4c(c3)CNC4=O)n3ncnc23)CC1 (stereo not drawn) [Example 16, TERT-BUTYL 4-(5-(1-OXOISOINDOLIN-5-YL)-[1,2,4]TRIAZOLO[1,5-A]PYRAZIN-8-YLAMINO)CYCLOHEXYLCARBAMATE] |
| 101 to 500 | O=C1NCc2cc(-c3cnc(NC4CCC(O)CC4)c4ncnn34)ccc21 (stereo not drawn) [Example 15, 5-(8-(4-HYDROXYCYCLOHEXYLAMINO)-[1,2,4]TRIAZOLO[1,5-A]PYRAZIN-5-YL)ISOINDOLIN-1-ONE] |
| 101 to 500 | O=C1NCc2cc(-c3cnc(NC4CCC4)c4nccn34)ccc21 [Example 5, 5-(8-(CYCLOBUTYLAMINO)IMIDAZO[1,2-A]PYRAZIN-5-YL)ISOINDOLIN-1-ONE] |
| 101 to 500 | O=C1NCc2cc(-c3cnc(NC4CCCCC4)c4nccn34)ccc21 [Example 1, 5-(8-(cyclohexylamino)imidazo[1,2-a]pyrazin-5-yl)isoindolin-1-one] |
| 501 to 1000 | NC(=O)c1cc(-c2cnc(NC3CCN(Cc4ccccc4)C3)c3ncnn23)co1 (stereo not drawn) [Example 4, 4-[8-(1-Benzyl-pyrrolidin-3-ylamino)-[1,2,4]triazolo[1,5-a]pyrazin-5-yl]-furan-2-carboxylic acid amide] |
| 501 to 1000 | NC(=O)c1cc(-c2cnc(NC3CCCC3)c3nccn23)co1 [Example 7, 4-(8-(CYCLOPENTYLAMINO)IMIDAZO[1,2-A]PYRAZIN-5-YL)FURAN-2-CARBOXAMIDE] |
| 101 to 500 | NC(=O)c1cc(-c2cnc(NC3CCC3)c3ncnn23)co1 [Example 2, 4-(8-(cyclobutylamino)-[1,2,4]triazolo[1,5-a]pyrazin-5-yl)furan-2-carboxamide] |
| 101 to 500 | O=C1NCc2cc(-c3cnc(NC4CC4)c4ncnn34)ccc21 [Example 14, 5-(8-(CYCLOPROPYLAMINO)-[1,2,4]TRIAZOLO[1,5-A]PYRAZIN-5-YL)ISOINDOLIN-1-ONE] |

Source: patent publication US8138193B2, “Fused pyrazine compounds useful for the treatment of degenerative and inflammatory diseases” (Janssen Pharmaceutica N.V., priority 2007, dated 2012)
